In paper PMC12406255, “Engineering Peptide Modulators for T‑Cell Migration by Structural Scaffold Matching” (Journal of Medicinal Chemistry, 2025):
Positions of bridges follow the written chain, without caps; N, C: chain ends. Non-standard residues stand in square brackets, D forms with d. Residues, ends and D or L forms follow the SMILES beside them. Nle = CCCC[C@H](N)C(=O)O

Tested on: CD3+ lymphocytes
Test: cells
Type: cell-based, human
Settings: for % Inhibition of cell migration compared to control, CD3+: normalized to untreated control, mean ± SEM of 4-6 experiments

Compound: CCCC[C@@H]1NC(=O)[C@H](C(C)C)NC(=O)[C@H](CCCCN)NC(=O)[C@@H](NC(=O)[C@H](CCC(N)=O)NC(=O)[C@H](CCC(=O)O)NC(C)=O)CSSC[C@@H](C(=O)N[C@@H](CCC(=O)O)C(=O)N[C@@H](CCCCN)C(N)=O)NC(=O)[C@H](CC(N)=O)NC(=O)[C@H](CC(=O)O)NC(=O)[C@H](CC(C)C)NC(=O)[C@@H]2CSSC[C@H](NC1=O)C(=O)N[C@@H](Cc1ccc(O)cc1)C(=O)N[C@@H](C)C(=O)N[C@@H](CCC(N)=O)C(=O)NCC(=O)N[C@@H](C)C(=O)N[C@@H](CCC(=O)O)C(=O)N[C@@H](CC(C)C)C(=O)N1CCC[C@H]1C(=O)N[C@@H](CCC(=O)O)C(=O)N[C@@H](CC(C)C)C(=O)N[C@@H](CC(C)C)C(=O)N[C@@H](CCCNC(=N)N)C(=O)N[C@@H](CCCNC(=N)N)C(=O)N2 [VhTI-pep 2] (Ac-EQCKV[Nle]CYAQGAELPELLRRCLDNCEK-NH2; disulfide 3-25, 7-21)
- % Inhibition of cell migration compared to control, CD3+ (0.1 μM): 28.7 ± 6.4%
- % Inhibition of cell migration compared to control, CD3+ (1 μM): 37.2 ± 6.8%
- EC50 (EC monolayer preincubated with peptide 15-30 min, healthy-donor PBMC added, 4 h migration, flow cytometry, mean ± SD of 3 to 5 (VhTI-pep 2: 4) independent experiments, read-out: EC50, inhibition of CD3+ lymphocyte migration): 10.6 ± 16.5 nM
- maximal effect of inhibition of cell migration, CD3+ lymphocytes (from the concentration-response experiment): 39.3 ± 8.7%
